US20240059671A1, “TYROSINE KINASE 2 (TYK2) DEGRADATION COMPOUNDS AND METHODS OF USE” (CULLGEN (SHANGHAI), INC., priority 2020, published 2024)

Biological target: TYK2 (Homo sapiens, UniProt P29597)
Experiment: TYK2 protein degradation in NOMO-1 cells by immunoblotting
Type: cell-based
Parameters: endogenous in cells
Details: NOMO-1 cells
Experimental: NOMO-1 cells were treated with CPD-155, CPD-157, and CPD-158 at 0.1, 1, 10, 100 and 1000 nM concentrations for 16 hours. […] Data shown that CPD-155, CPD-157, and CPD-158 are very potent at the reduction protein levels of TYK2.
MOLT-4 or NOMO-1 cells were cultured at 37° C. with 5% CO2 in RPMI 1640 Medium supplemented with 10% fetal bovine serum. Cells were authenticated using the short tandem repeat (STR) assays. Mycoplasma test results were negative.
Cultured cells were washed with cold PBS once and lysed in cold RIPA buffer supplemented with protease inhibitors and phosphatase inhibitors (Beyotime Biotechnology). The solutions were then incubated at 4° C. for 30 minutes with gentle agitation to fully lyse cells. Cell lysates were centrifuged at 13,000 rpm for 10 minutes at 4° C. and pellets were discarded. Total protein concentrations in the lysates were determined by BCA assays (Beyotime Biotechnology). Cell lysates were mixed with Laemmli loading buffer to 1× and heated at 99° C. for 5 min. Proteins were resolved on SDS-PAGE and visualized by chemiluminescence. Images were taken by a ChemiDoc MP Imaging system (Bio-Rad). Protein bands were quantitated using the accompanied software provided by Bio-Rad.

Sequence of TYK2 (P29597 whole entry): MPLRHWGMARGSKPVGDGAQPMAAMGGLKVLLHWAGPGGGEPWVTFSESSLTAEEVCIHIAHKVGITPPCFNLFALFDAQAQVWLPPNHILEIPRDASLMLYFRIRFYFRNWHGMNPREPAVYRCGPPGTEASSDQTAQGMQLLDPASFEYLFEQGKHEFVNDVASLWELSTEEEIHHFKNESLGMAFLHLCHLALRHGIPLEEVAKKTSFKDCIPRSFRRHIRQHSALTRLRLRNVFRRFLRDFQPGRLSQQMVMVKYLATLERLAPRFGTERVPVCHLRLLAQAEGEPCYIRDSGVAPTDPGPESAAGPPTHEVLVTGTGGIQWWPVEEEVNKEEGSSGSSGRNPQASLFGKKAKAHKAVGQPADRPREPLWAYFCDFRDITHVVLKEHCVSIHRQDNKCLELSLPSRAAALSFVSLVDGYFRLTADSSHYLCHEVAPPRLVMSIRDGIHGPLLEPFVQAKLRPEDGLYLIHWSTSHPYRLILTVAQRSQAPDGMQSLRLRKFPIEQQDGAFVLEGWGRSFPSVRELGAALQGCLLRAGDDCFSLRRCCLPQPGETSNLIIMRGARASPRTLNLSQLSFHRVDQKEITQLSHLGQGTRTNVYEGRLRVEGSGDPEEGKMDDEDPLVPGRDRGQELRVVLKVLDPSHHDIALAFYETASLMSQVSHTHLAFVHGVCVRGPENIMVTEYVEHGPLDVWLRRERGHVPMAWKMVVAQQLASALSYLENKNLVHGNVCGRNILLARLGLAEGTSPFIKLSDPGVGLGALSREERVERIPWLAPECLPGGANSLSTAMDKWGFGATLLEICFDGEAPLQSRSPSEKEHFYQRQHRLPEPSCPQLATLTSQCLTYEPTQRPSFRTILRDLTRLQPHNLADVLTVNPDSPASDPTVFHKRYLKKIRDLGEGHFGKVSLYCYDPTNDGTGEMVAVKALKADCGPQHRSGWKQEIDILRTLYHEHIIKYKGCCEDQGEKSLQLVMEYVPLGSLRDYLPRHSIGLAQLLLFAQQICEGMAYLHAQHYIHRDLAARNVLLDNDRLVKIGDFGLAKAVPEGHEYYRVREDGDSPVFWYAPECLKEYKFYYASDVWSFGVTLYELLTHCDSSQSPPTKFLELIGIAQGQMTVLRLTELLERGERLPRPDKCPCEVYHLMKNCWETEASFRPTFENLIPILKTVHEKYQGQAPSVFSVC

| Structure (SMILES) | TYK2 Degradation (NOMO-1, 10 nM) | TYK2 Degradation (NOMO-1, 100 nM) |
| --- | --- | --- |
| CNC(=O)c1nnc(Nc2ccc(N3CCN(C(=O)CCCCCCC(=O)N[C@H](C(=O)N4C[C@H](O)C[C@H]4C(=O)N[C@@H](C)c4ccc(-c5scnc5C)cc4)C(C)(C)C)CC3)cn2)cc1Nc1cccc(-c2ncn(C)n2)c1OC [CDP-112, 6-((5-(4-(8-(((S)-1-((2S,4R)-4-Hydroxy-2-(((S)-1-(4-(4-methylthiazol-5-yl)phenyl)ethyl)carbamoyl)pyrrolidin-1-yl)-3,3-dimethyl-1-oxobutan-2-yl)amino)-8-oxooctanoyl)piperazin-1-yl)pyridin-2-yl)amino)-4-((2-methoxy-3-(1-methyl-1H-1,2,4-triazol-3-yl)phenyl)amino)-N-methylpyridazine-3-carboxamide] | A (A: ≥60% TYK2 degradation) | A (A: ≥60% TYK2 degradation) |
| CNC(=O)c1nnc(Nc2ccc(N3CCN(CCCCCCCC(=O)N[C@H](C(=O)N4C[C@H](O)C[C@H]4C(=O)N[C@@H](C)c4ccc(-c5scnc5C)cc4)C(C)(C)C)CC3)cn2)cc1Nc1cccc(-c2ncn(C)n2)c1OC [CPD-113, 6-((5-(4-(8-(((S)-1-((2S,4R)-4-Hydroxy-2-(((S)-1-(4-(4-methylthiazol-5-yl)phenyl)ethyl)carbamoyl)pyrrolidin-1-yl)-3,3-dimethyl-1-oxobutan-2-yl)amino)-8-oxooctyl)piperazin-1-yl)pyridin-2-yl)amino)-4-((2-methoxy-3-(1-methyl-1H-1,2,4-triazol-3-yl)phenyl)amino)-N-methylpyridazine-3-carboxamide] | B (B: <60% TYK2 degradation, and >20% TYK2 degradation) | A (A: ≥60% TYK2 degradation) |
| CNC(=O)c1nnc(Nc2ccc(N3CCN(C(=O)CCCCCCCCC(=O)N[C@H](C(=O)N4C[C@H](O)C[C@H]4C(=O)N[C@@H](C)c4ccc(-c5scnc5C)cc4)C(C)(C)C)CC3)cn2)cc1Nc1cccc(-c2ncn(C)n2)c1OC [CPD-114, 6-((5-(4-(10-(((S)-1-((2S,4R)-4-hydroxy-2-(((S)-1-(4-(4-methylthiazol-5-yl)phenyl)ethyl)carbamoyl)pyrrolidin-1-yl)-3,3-dimethyl-1-oxobutan-2-yl)amino)-10-oxodecanoyl)piperazin-1-yl)pyridin-2-yl)amino)-4-((2-methoxy-3-(1-methyl-1H-1,2,4-triazol-3-yl)phenyl)amino)-N-methylpyridazine-3-carboxamide] | A (A: ≥60% TYK2 degradation) | A (A: ≥60% TYK2 degradation) |
| CNC(=O)c1nnc(Nc2ccc(N3CCN(C(=O)CCCCCCCC(=O)N[C@H](C(=O)N4C[C@H](O)C[C@H]4C(=O)N[C@@H](C)c4ccc(-c5scnc5C)cc4)C(C)(C)C)CC3)cn2)cc1Nc1cccc(-c2ncn(C)n2)c1OC [CPD-115, 6-((5-(4-(9-(((S)-1-((2S,4R)-4-hydroxy-2-(((S)-1-(4-(4-methylthiazol-5-yl)phenyl)ethyl)carbamoyl)pyrrolidin-1-yl)-3,3-dimethyl-1-oxobutan-2-yl)amino)-9-oxononanoyl)piperazin-1-yl)pyridin-2-yl)amino)-4-((2-methoxy-3-(1-methyl-1H-1,2,4-triazol-3-yl)phenyl)amino)-N-methylpyridazine-3-carboxamide] | A (A: ≥60% TYK2 degradation) | A (A: ≥60% TYK2 degradation) |
| CNC(=O)c1nnc(Nc2ccc(C#CC3CCN(C(=O)CCC(=O)N[C@H](C(=O)N4C[C@H](O)C[C@H]4C(=O)N[C@@H](C)c4ccc(-c5scnc5C)cc4)C(C)(C)C)CC3)cn2)cc1Nc1cccc(-c2ncn(C)n2)c1OC [CPD-116, 6-((5-((1-(4-(((S)-1-((2S,4R)-4-Hydroxy-2-(((S)-1-(4-(4-methylthiazol-5-yl)phenyl)ethyl)carbamoyl)pyrrolidin-1-yl)-3,3-dimethyl-1-oxobutan-2-yl)amino)-4-oxobutanoyl)piperidin-4-yl)ethynyl)pyridin-2-yl)amino)-4-((2-methoxy-3-(1-methyl-1H-1,2,4-triazol-3-yl)phenyl)amino)-N-methylpyridazine-3-carboxamide] | C (C: ≤20% TYK2 degradation) | A (A: ≥60% TYK2 degradation) |
| CNC(=O)c1nnc(Nc2ccc(C#CC3CCN(C(=O)CCCCCC(=O)N[C@H](C(=O)N4C[C@H](O)C[C@H]4C(=O)N[C@@H](C)c4ccc(-c5scnc5C)cc4)C(C)(C)C)CC3)cn2)cc1Nc1cccc(-c2ncn(C)n2)c1OC [CPD-118, 6-((5-((1-(7-(((S)-1-((2S,4R)-4-Hydroxy-2-(((S)-1-(4-(4-methylthiazol-5-yl)phenyl)ethyl)carbamoyl)pyrrolidin-1-yl)-3,3-dimethyl-1-oxobutan-2-yl)amino)-7-oxoheptanoyl)piperidin-4-yl)ethynyl)pyridin-2-yl)amino)-4-((2-methoxy-3-(1-methyl-1H-1,2,4-triazol-3-yl)phenyl)amino)-N-methylpyridazine-3-carboxamide] | B (B: <60% TYK2 degradation, and >20% TYK2 degradation) | A (A: ≥60% TYK2 degradation) |
| CNC(=O)c1nnc(Nc2ccc(C#CC3CCN(C(=O)CCCCCCCCC(=O)N[C@H](C(=O)N4C[C@H](O)C[C@H]4C(=O)N[C@@H](C)c4ccc(-c5scnc5C)cc4)C(C)(C)C)CC3)cn2)cc1Nc1cccc(-c2ncn(C)n2)c1OC [CPD-121, 6-((5-((1-(10-(((S)-1-((2S,4R)-4-hydroxy-2-(((5)-1-(4-(4-methylthiazol-5-yl)phenyl)ethyl)carbamoyl)pyrrolidin-1-yl)-3,3-dimethyl-1-oxobutan-2-yl)amino)-10-oxodecanoyl)piperidin-4-yl)ethynyl)pyridin-2-yl)amino)-4-((2-methoxy-3-(1-methyl-1H-1,2,4-triazol-3-yl)phenyl)amino)-N-methylpyridazine-3-carboxamide] | A (A: ≥60% TYK2 degradation) | A (A: ≥60% TYK2 degradation) |
| CNC(=O)c1nnc(Nc2ccc(C#CC3CN(C(=O)CCC(=O)N[C@H](C(=O)N4C[C@H](O)C[C@H]4C(=O)N[C@@H](C)c4ccc(-c5scnc5C)cc4)C(C)(C)C)C3)cn2)cc1Nc1cccc(-c2ncn(C)n2)c1OC [CPD-122, 6-((5-((1-(4-(((S)-1-((2S,4R)-4-Hydroxy-2-(((S)-1-(4-(4-methylthiazol-5-yl)phenyl)ethyl)carbamoyl)pyrrolidin-1-yl)-3,3-dimethyl-1-oxobutan-2-yl)amino)-4-oxobutanoyl)azetidin-3-yl)ethynyl)pyridin-2-yl)amino)-4-((2-methoxy-3-(1-methyl-1H-1,2,4-triazol-3-yl)phenyl)amino)-N-methylpyridazine-3-carboxamide] | – | C (C: ≤20% TYK2 degradation) |

Results, then the compound that gave them:

| TYK2 Degradation (NOMO-1, 10 nM) | TYK2 Degradation (NOMO-1, 100 nM) | Structure (SMILES) |
| --- | --- | --- |
| C (C: ≤20% TYK2 degradation) | A (A: ≥60% TYK2 degradation) | CNC(=O)c1nnc(Nc2ccc(C#CC3CCN(C(=O)CCCCC(=O)N[C@H](C(=O)N4C[C@H](O)C[C@H]4C(=O)N[C@@H](C)c4ccc(-c5scnc5C)cc4)C(C)(C)C)CC3)cn2)cc1Nc1cccc(-c2ncn(C)n2)c1OC [CPD-117, 6-((5-((1-(6-(((S)-1-((2S,4R)-4-Hydroxy-2-(((S)-1-(4-(4-methylthiazol-5-yl)phenyl)ethyl)carbamoyl)pyrrolidin-1-yl)-3,3-dimethyl-1-oxobutan-2-yl)amino)-6-oxohexanoyl)piperidin-4-yl)ethynyl)pyridin-2-yl)amino)-4-((2-methoxy-3-(1-methyl-1H-1,2,4-triazol-3-yl)phenyl)amino)-N-methylpyridazine-3-carboxamide] |
| – | A (A: ≥60% TYK2 degradation) | CNC(=O)c1nnc(Nc2ccc(C#CC3CCN(C(=O)CCCCCCC(=O)N[C@H](C(=O)N4C[C@H](O)C[C@H]4C(=O)N[C@@H](C)c4ccc(-c5scnc5C)cc4)C(C)(C)C)CC3)cn2)cc1Nc1cccc(-c2ncn(C)n2)c1OC [CPD-119, 6-((5-((1-(8-(((S)-1-((2S,4R)-4-Hydroxy-2-(((S)-1-(4-(4-methylthiazol-5-yl)phenyl)ethyl)carbamoyl)pyrrolidin-1-yl)-3,3-dimethyl-1-oxobutan-2-yl)amino)-8-oxooctanoyl)piperidin-4-yl)ethynyl)pyridin-2-yl)amino)-4-((2-methoxy-3-(1-methyl-1H-1,2,4-triazol-3-yl)phenyl)amino)-N-methylpyridazine-3-carboxamide] |
| – | A (A: ≥60% TYK2 degradation) | CNC(=O)c1nnc(Nc2ccc(C#CC3CCN(C(=O)CCCCCCCC(=O)N[C@H](C(=O)N4C[C@H](O)C[C@H]4C(=O)N[C@@H](C)c4ccc(-c5scnc5C)cc4)C(C)(C)C)CC3)cn2)cc1Nc1cccc(-c2ncn(C)n2)c1OC [CPD-120, 6-((5-((1-(9-(((S)-1-((2S,4R)-4-Hydroxy-2-(((S)-1-(4-(4-methylthiazol-5-yl)phenyl)ethyl)carbamoyl)pyrrolidin-1-yl)-3,3-dimethyl-1-oxobutan-2-yl)amino)-9-oxononanoyl)piperidin-4-yl)ethynyl)pyridin-2-yl)amino)-4-((2-methoxy-3-(1-methyl-1H-1,2,4-triazol-3-yl)phenyl)amino)-N-methylpyridazine-3-carboxamide] |
